From PubChem BioAssay AID248 (DTP/NCI, 2004)
Toxic doses and inconclusive results are not listed. Cut-off read from the data, not from the text of the source: active = T/C of 150% or more; inactive = T/C below 125%.

Tested on: L1210 leukemia ip in BDF1 mice, survival T/C
Experiment: NCI In Vivo Anticancer Drug Screen. Data for tumor model L1210 Leukemia (intraperitoneal) in B6D2F1 (BDF1) mice
Conditions: endpoint: mean survival time, higher = longer survival
How it was run: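 Transplanted-tumor mice were given test agent; controls received vehicle only. Survival readings from the two groups were divided (treated over control).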

[1] = dose: 100.0 mg/kg/injection, schedule: Q01DX001 (ip), vehicle: Klucel (hydroxypropylcellulose) (HPC)
[2] = dose: 100.0 mg/kg/injection, schedule: Q01DX009 (ip), vehicle: saline
[3] = dose: 100.0 mg/kg/injection, schedule: Q04DX003 (ip), vehicle: saline
[4] = dose: 200.0 mg/kg/injection, schedule: Q01DX009 (ip), vehicle: saline
[5] = dose: 200.0 mg/kg/injection, schedule: Q04DX003 (ip), vehicle: saline
[6] = dose: 400.0 mg/kg/injection, schedule: Q04DX003 (ip), vehicle: saline
[7] = dose: 200.0 mg/kg/injection, schedule: Q01DX001 (ip), vehicle: Klucel (hydroxypropylcellulose) (HPC)

Measured: T/C

O=S1(=O)CCC2CCCCC2C1 (stereo not given)
inactive: dose: 6.25 mg/kg/injection, schedule: Q01DX009 (ip), vehicle: saline with Tween-80 94 % of control | dose: 12.5 mg/kg/injection, schedule: Q01DX009 (ip), vehicle: saline with Tween-80 100 % of control | dose: 25.0 mg/kg/injection, schedule: Q01DX009 (ip), vehicle: saline with Tween-80 90 % of control

O=[N+]([O-])OCc1c(Cl)nc(Cl)c(Cl)c1Cl
inactive: dose: 20.0 mg/kg/injection, schedule: Q01DX009 (ip), vehicle: Klucel (hydroxypropylcellulose) (HPC) 103 % of control | dose: 40.0 mg/kg/injection, schedule: Q01DX009 (ip), vehicle: Klucel (hydroxypropylcellulose) (HPC) 92 % of control | dose: 100.0 mg/kg/injection, schedule: Q04DX003 (ip), vehicle: Klucel (hydroxypropylcellulose) (HPC) 92 % of control | dose: 200.0 mg/kg/injection, schedule: Q04DX003 (ip), vehicle: Klucel (hydroxypropylcellulose) (HPC) 100 % of control

CCOC(=O)Nc1cc2[nH]cnc2c(NC(=O)OCC)n1
inactive: dose: 75.0 mg/kg/injection, schedule: Q01DX001 (ip), vehicle: saline 95 % of control | dose: 150.0 mg/kg/injection, schedule: Q01DX001 (ip), vehicle: saline 101 % of control | dose: 300.0 mg/kg/injection, schedule: Q01DX001 (ip), vehicle: saline 92 % of control

Nc1cc(OCc2ccccc2)ncn1
inactive: dose: 25.0 mg/kg/injection, schedule: Q01DX001 (ip), vehicle: Klucel (hydroxypropylcellulose) (HPC) 103 % of control | dose: 50.0 mg/kg/injection, schedule: Q01DX001 (ip), vehicle: Klucel (hydroxypropylcellulose) (HPC) 109 % of control | [1] 97 % of control

C/C(CCC(=O)O)=N/O
inactive: [2] 101 % of control | [3] 95 % of control | [4] 97 % of control | [5] 100 % of control | dose: 400.0 mg/kg/injection, schedule: Q01DX009 (ip), vehicle: saline 105 % of control | [6] 101 % of control

O=C(COc1ccccc1[N+](=O)[O-])Nc1ccccc1C(=O)O
inactive: dose: 100.0 mg/kg/injection, schedule: Q01DX001 (ip), vehicle: saline with Tween-80 92 % of control | dose: 200.0 mg/kg/injection, schedule: Q01DX001 (ip), vehicle: saline with Tween-80 92 % of control

O=C(Nc1ccc(Cl)c(Cl)c1)Nc1cccc2nsnc12
inactive: dose: 100.0 mg/kg/injection, schedule: Q01DX009 (ip), vehicle: Klucel (hydroxypropylcellulose) (HPC) 92 % of control | dose: 200.0 mg/kg/injection, schedule: Q01DX009 (ip), vehicle: Klucel (hydroxypropylcellulose) (HPC) 92 % of control | dose: 400.0 mg/kg/injection, schedule: Q01DX009 (ip), vehicle: Klucel (hydroxypropylcellulose) (HPC) 92 % of control

O=C1C(=O)c2cccc3cccc1c23
inactive: [1] 88 % of control | dose: 100.0 mg/kg/injection, schedule: Q01DX009 (ip), vehicle: saline with Tween-80 90 % of control | [7] 93 % of control | dose: 200.0 mg/kg/injection, schedule: Q01DX009 (ip), vehicle: saline with Tween-80 89 % of control | dose: 400.0 mg/kg/injection, schedule: Q01DX001 (ip), vehicle: Klucel (hydroxypropylcellulose) (HPC) 97 % of control | dose: 400.0 mg/kg/injection, schedule: Q01DX009 (ip), vehicle: saline with Tween-80 89 % of control

COc1ccc(NC(=O)CC#N)cc1
inactive: [1] 101 % of control | [7] 95 % of control

O=C1c2ccccc2C(=O)N1OCCCCON1C(=O)c2ccccc2C1=O
inactive: dose: 50.0 mg/kg/injection, schedule: Q01DX001 (ip), vehicle: saline 100 % of control | dose: 100.0 mg/kg/injection, schedule: Q01DX001 (ip), vehicle: saline 106 % of control | dose: 200.0 mg/kg/injection, schedule: Q01DX001 (ip), vehicle: saline 106 % of control | dose: 400.0 mg/kg/injection, schedule: Q01DX001 (ip), vehicle: saline 102 % of control

CC(Cl)CN(Cc1cc(O)c(CN(CC(C)Cl)CC(C)Cl)cc1O)CC(C)Cl (stereo not given)
inactive: dose: 50.0 mg/kg/injection, schedule: Q01DX001 (ip), vehicle: carboxymethylcellulose (CMC) 105 % of control | dose: 100.0 mg/kg/injection, schedule: Q01DX001 (ip), vehicle: carboxymethylcellulose (CMC) 94 % of control | dose: 200.0 mg/kg/injection, schedule: Q01DX001 (ip), vehicle: carboxymethylcellulose (CMC) 95 % of control | dose: 400.0 mg/kg/injection, schedule: Q01DX001 (ip), vehicle: carboxymethylcellulose (CMC) 90 % of control

CCNCC#CCNCC
inactive: [2] 96 % of control | [3] 96 % of control | [4] 107 % of control | [5] 98 % of control | [6] 99 % of control
